Tests used:
Test in all cases: relative viability (nuclei count vs DMSO), 5 days (fraction); higher = more cells survive
NCI-H2228 = system: NCI-H2228
How it was run: (§1)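 Five library-drug doses in √10 steps were combined with a fixed anchor-drug dose, or a single drug was given alone, by pin tool to lung cancer cell lines in 1536-well plates the day after seeding. Nuclei were stained and counted after 5 days. Relative viability is the nuclei count in treated wells over that in vehicle wells, taken as the median of duplicate plates.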

NCI-H322M = system: NCI-H322M
How it was run: as §1

NCI-H1651 = system: NCI-H1651
How it was run: as §1

NCI-H1355 = system: NCI-H1355
How it was run: as §1

SW 1573 = system: SW 1573
How it was run: as §1

NCI-H1437 = system: NCI-H1437
How it was run: as §1

EKVX = system: EKVX
How it was run: as §1

CAL-12T = system: CAL-12T
How it was run: as §1

SK-MES-1 = system: SK-MES-1
How it was run: as §1

HCC-827 = system: HCC-827
How it was run: as §1

LK-2 = system: LK-2
How it was run: as §1

NCI-H1734 = system: NCI-H1734
How it was run: as §1

NCI-H520 = system: NCI-H520
How it was run: as §1

COR-L23 = system: COR-L23
How it was run: as §1

NCI-H661 = system: NCI-H661
How it was run: as §1

PC-3 [JPC-3] = system: PC-3 [JPC-3]
How it was run: as §1

H3255 = system: H3255
How it was run: as §1

HCC-15 = system: HCC-15
How it was run: as §1

PC-14 = system: PC-14
How it was run: as §1

RERF-LC-KJ = system: RERF-LC-KJ
How it was run: as §1

NCI-H1650 = system: NCI-H1650
How it was run: as §1

NCI-H2405 = system: NCI-H2405
How it was run: as §1

COc1cc(N2CCC(C(N)=O)CC2)ccc1Nc1nc(N)c(Cl)c(Nc2ccccc2S(=O)(=O)C(C)C)n1 [HG-5-88-01] + CC(=O)Nc1cccc(-n2c(=O)n(C3CC3)c(=O)c3c(Nc4ccc(I)cc4F)n(C)c(=O)c(C)c32)c1 [Trametinib] (partner 0.02 µM)
relative viability (NCI-H2228; first compound 0.04 µM): 0.214 | relative viability (NCI-H2228; first compound 0.1265 µM): 0.108 | relative viability (NCI-H2228; first compound 0.4 µM): 0.268 | relative viability (NCI-H2228; first compound 1.265 µM): 0.174 | relative viability (NCI-H2228; first compound 4 µM): 0.231 | relative viability (NCI-H322M; first compound 0.04 µM): 0.486 | relative viability (NCI-H322M; first compound 0.1265 µM): 0.459 | relative viability (NCI-H322M; first compound 0.4 µM): 0.524 | relative viability (NCI-H322M; first compound 1.265 µM): 0.36 | relative viability (NCI-H322M; first compound 4 µM): 0.451 | relative viability (NCI-H1651; first compound 0.04 µM): 0.918 | relative viability (NCI-H1651; first compound 0.1265 µM): 0.862 | relative viability (NCI-H1651; first compound 0.4 µM): 0.799 | relative viability (NCI-H1651; first compound 1.265 µM): 0.744 | relative viability (NCI-H1651; first compound 4 µM): 0.957 | relative viability (NCI-H1355; first compound 0.04 µM): 0.439 | relative viability (NCI-H1355; first compound 0.1265 µM): 0.351 | relative viability (NCI-H1355; first compound 0.4 µM): 0.407 | relative viability (NCI-H1355; first compound 1.265 µM): 0.298 | relative viability (NCI-H1355; first compound 4 µM): 0.323 | relative viability (SW 1573; first compound 0.04 µM): 0.598 | relative viability (SW 1573; first compound 0.1265 µM): 0.533 | relative viability (SW 1573; first compound 0.4 µM): 0.581 | relative viability (SW 1573; first compound 1.265 µM): 0.464 | relative viability (SW 1573; first compound 4 µM): 0.52 | relative viability (NCI-H1437; first compound 0.04 µM): 0.581 | relative viability (NCI-H1437; first compound 0.1265 µM): 0.56 | relative viability (NCI-H1437; first compound 0.4 µM): 0.447 | relative viability (NCI-H1437; first compound 1.265 µM): 0.475 | relative viability (NCI-H1437; first compound 4 µM): 0.333 | relative viability (EKVX; first compound 0.04 µM): 0.367 | relative viability (EKVX; first compound 0.1265 µM): 0.36 | relative viability (EKVX; first compound 0.4 µM): 0.278 | relative viability (EKVX; first compound 4 µM): 0.266 | relative viability (CAL-12T; first compound 0.04 µM): 0.377 | relative viability (CAL-12T; first compound 0.1265 µM): 0.378 | relative viability (CAL-12T; first compound 0.4 µM): 0.3 | relative viability (CAL-12T; first compound 1.265 µM): 0.227 | relative viability (CAL-12T; first compound 4 µM): 0.201 | relative viability (SK-MES-1; first compound 0.04 µM): 0.535 | relative viability (SK-MES-1; first compound 0.1265 µM): 0.54 | relative viability (SK-MES-1; first compound 0.4 µM): 0.503 | relative viability (SK-MES-1; first compound 1.265 µM): 0.498 | relative viability (SK-MES-1; first compound 4 µM): 0.619 | relative viability (HCC-827; first compound 0.04 µM): 0.529 | relative viability (HCC-827; first compound 0.1265 µM): 0.463 | relative viability (HCC-827; first compound 0.4 µM): 0.538 | relative viability (HCC-827; first compound 1.265 µM): 0.18 | relative viability (HCC-827; first compound 4 µM): 0.269 | relative viability (LK-2; first compound 0.04 µM): 0.927 | relative viability (LK-2; first compound 0.1265 µM): 0.911 | relative viability (LK-2; first compound 0.4 µM): 0.728 | relative viability (LK-2; first compound 4 µM): 0.514 | relative viability (NCI-H1734; first compound 0.04 µM): 0.669 | relative viability (NCI-H1734; first compound 0.1265 µM): 0.755 | relative viability (NCI-H1734; first compound 0.4 µM): 0.643 | relative viability (NCI-H1734; first compound 1.265 µM): 0.623 | relative viability (NCI-H1734; first compound 4 µM): 0.621 | relative viability (NCI-H520; first compound 0.04 µM): 0.568 | relative viability (NCI-H520; first compound 0.1265 µM): 0.831 | relative viability (NCI-H520; first compound 0.4 µM): 0.617 | relative viability (NCI-H520; first compound 1.265 µM): 0.74 | relative viability (NCI-H520; first compound 4 µM): 0.634 | relative viability (COR-L23; first compound 0.04 µM): 0.502 | relative viability (COR-L23; first compound 0.1265 µM): 0.664 | relative viability (COR-L23; first compound 0.4 µM): 0.51 | relative viability (COR-L23; first compound 1.265 µM): 0.488 | relative viability (COR-L23; first compound 4 µM): 0.368 | relative viability (NCI-H661; first compound 0.04 µM): 0.591 | relative viability (NCI-H661; first compound 0.1265 µM): 0.666 | relative viability (NCI-H661; first compound 0.4 µM): 0.573 | relative viability (NCI-H661; first compound 1.265 µM): 0.554 | relative viability (NCI-H661; first compound 4 µM): 0.608 | relative viability (PC-3 [JPC-3]; first compound 0.04 µM): 0.708 | relative viability (PC-3 [JPC-3]; first compound 0.1265 µM): 0.738 | relative viability (PC-3 [JPC-3]; first compound 0.4 µM): 0.684 | relative viability (PC-3 [JPC-3]; first compound 1.265 µM): 0.448 | relative viability (PC-3 [JPC-3]; first compound 4 µM): 0.361 | relative viability (H3255; first compound 0.04 µM): 0.563 | relative viability (H3255; first compound 0.1265 µM): 0.697 | relative viability (H3255; first compound 0.4 µM): 0.619 | relative viability (H3255; first compound 4 µM): 0.539 | relative viability (HCC-15; first compound 0.04 µM): 0.372 | relative viability (HCC-15; first compound 0.1265 µM): 0.359 | relative viability (HCC-15; first compound 0.4 µM): 0.36 | relative viability (HCC-15; first compound 1.265 µM): 0.314 | relative viability (HCC-15; first compound 4 µM): 0.251 | relative viability (PC-14; first compound 0.04 µM): 0.825 | relative viability (PC-14; first compound 0.1265 µM): 0.836 | relative viability (PC-14; first compound 0.4 µM): 0.626 | relative viability (PC-14; first compound 1.265 µM): 0.28 | relative viability (PC-14; first compound 4 µM): 0.0722 | relative viability (RERF-LC-KJ; first compound 0.04 µM): 0.79 | relative viability (RERF-LC-KJ; first compound 0.1265 µM): 0.902 | relative viability (RERF-LC-KJ; first compound 0.4 µM): 0.744 | relative viability (RERF-LC-KJ; first compound 1.265 µM): 0.713 | relative viability (RERF-LC-KJ; first compound 4 µM): 0.714 | relative viability (NCI-H1650; first compound 0.04 µM): 0.586 | relative viability (NCI-H1650; first compound 0.1265 µM): 0.633 | relative viability (NCI-H1650; first compound 0.4 µM): 0.559 | relative viability (NCI-H1650; first compound 1.265 µM): 0.386 | relative viability (NCI-H1650; first compound 4 µM): 0.532 | relative viability (NCI-H2405; first compound 0.04 µM): 0.676 | relative viability (NCI-H2405; first compound 0.1265 µM): 0.706 | relative viability (NCI-H2405; first compound 0.4 µM): 0.529 | relative viability (NCI-H2405; first compound 1.265 µM): 0.455 | relative viability (NCI-H2405; first compound 4 µM): 0.545

— the supplement of paper PMC10307832
